Assay results from US7812121B2 (priority 2006, dated 2010).
Entries after “also recorded” stand apart in the source; their conditions may differ. Ends that are not written are not given here.

How the values were obtained:
[1] = CD spectra secondary structure; type: physicochemical; conditions: 0.2 mg/mL peptide in PBS, 25° C.
Experimental: The secondary structures of tested peptides were determined using 0.2 mg/mL peptide solutions in PBS. Briefly, CD spectra were collected in triplicate at 1 nm intervals at 25° C. in 0.1 cm path length cell. Secondary structures were determined by fitting of the CD spectra using CD spectra software (CD Spectra Deconvolution software 2.1). All tested peptides contained peaks corresponding to the presence of alpha helices.

[2] = SEC-SLS solution molecular weight / self-association; type: physicochemical; conditions: PBS (pH 7.5); for SEC-SLS elution / association state of peptides: 1 mg/ml
Experimental: Solution molecular weight of the peptides was measured by SEC-SLS. Briefly, peptide solutions in PBS (pH 7.5) at 0.4 to 2.0 mg/mL were fractionated over a Superdex peptide column (Amersham Pharmacia). The eluted peaks were monitored by static light scattering at 690 nm and solution molecular weight was determined at UV 280 nm using the Astra software package (Wyatt Inc.).

[3] = target: T1, mutated human GLP-2R (Homo sapiens, UniProt O95838, E512D/G511A/L513V); experiment: cAMP expression assay; type: cell-based; conditions: for EC50: Table 5, peptides 0.01 nM to 1.0 uM, 30-minute incubation at 37° C., read-out: cAMP in Vitro EC50 values; for less activity relative to wild type GLP-2: from cAMP EC50
T1 construct: expressed in transfected cells; host or cells: HEK 293E (clonal line, transfected)
T1 sequence (O95838 1-553 G511A/E512D/L513V): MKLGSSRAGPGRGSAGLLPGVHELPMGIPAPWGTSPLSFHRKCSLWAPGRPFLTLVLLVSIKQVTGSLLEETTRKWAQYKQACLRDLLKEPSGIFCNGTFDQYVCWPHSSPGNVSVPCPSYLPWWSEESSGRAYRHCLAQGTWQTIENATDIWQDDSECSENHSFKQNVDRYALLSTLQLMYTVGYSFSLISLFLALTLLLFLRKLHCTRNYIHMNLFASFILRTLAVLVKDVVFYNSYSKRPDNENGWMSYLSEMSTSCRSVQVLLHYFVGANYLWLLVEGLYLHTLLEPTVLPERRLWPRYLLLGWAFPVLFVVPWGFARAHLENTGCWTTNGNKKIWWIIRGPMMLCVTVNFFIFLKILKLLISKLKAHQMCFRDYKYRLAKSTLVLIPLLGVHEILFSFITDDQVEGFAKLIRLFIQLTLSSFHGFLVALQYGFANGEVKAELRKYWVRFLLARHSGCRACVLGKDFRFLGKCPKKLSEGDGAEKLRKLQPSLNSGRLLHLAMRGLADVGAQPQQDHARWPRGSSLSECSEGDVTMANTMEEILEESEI
Excerpt: To achieve this goal, a clonal cell line expressing a mutated human GLP-2R was generated by transfecting HEK 293E cells. The mutated human GLP-2R differs from the wild-type human GLP-2R (SEQ ID NO: 35) at three amino acid positions within the C-terminal intracellular region (SEQ ID NO: 36).
The CAMP expression was quantitated using the cAMP Direct Screen System (Cat. No. CSD 200, Applied Biosystems, Bedford, Mass.).
This assay was based on the cAMP Direct screen system from Applied Biosystems utilizing a cell line expressing mutated huGLP-2R in HEK 293E cells. Peptide at concentrations ranging from 0.01 nM to 1.0 uM in PBS with 0.5% BSA was added to ˜50,000 cells suspended in 96-well plates. After a 30-minute incubation at 37° C., Lysis Buffer followed by luminescence reagents (Applied Biosystems) was added according to the manufacturers' procedures (Applied Biosystems Luminescence protocol: cAMP-Screen Direct System). Luminescence was quantitated using a TopCount liquid scintillation analyzer (PerkinElmer), and data was processed using Softmax software (Molecular Devices Corporation).

[4] = system: normal mice; experiment: Upper gastrointestinal transit, FITC-dextran method; type: in vivo; conditions: 30 minute test; for upper gastrointestinal transit: single injection 4 mg/kg 4 days before, 4 mg/kg
Experimental: On the day of study, upper gastrointestinal transit was measured using the FITC-dextran method. This method provides both, a measure of gastrointestinal transit and a readout of the pattern of distribution of the test meal along the gastrointestinal tract. Mice were fed a test meal of […] of FITC-dextran solution (5 mg/ml of 70,000 molecular weight dextran conjugated to fluorescein-isothiocyanate in 0.5% methylcellulose/deionized water) administered intragastrically by an 18 gauge curved feeding tube. Following oral administration of the FITC-dextran test meal, mice were returned to their home cages. It was shown that a 30 min test period was the optimum duration for detecting accelerated transit, while a 45 min test period was optimum for detecting delayed transit. Following the appropriate test period, mice were sacrificed by carbon dioxide exposure. The entire gastrointestinal tract from the lower esophageal sphincter to the terminal colon was removed. The bowel segments were opened along the mesenteric border. The tissue and luminal contents of the stomach, 10 equal segments of small intestine, the cecum, and 3 equal segments of colon were placed in individual Eppendorf tubes containing 1 ml of PBS. The tissue was vigorously mixed on a table-top vortex, and solid materials were pelleted by centrifugation. Aliquots of the cleared supernatant were read in duplicate on a 96-well fluorescence plate reader to quantify the magnitude of the fluorescent signal in each segment of bowel. These values were used to calculate the Geometric Center (GC), which is defined as the weighted average distribution of the fluorescent signal along the gastrointestinal tract: GC=Σ(% of total fluorescent signal per segment×segment number)/100. Higher values represent faster rates of transit on scale of 1 to 15. […] The mimetibody-induced shift in the distribution pattern of FITC-dextran is shown in the upper panel. […] The GC is calculated in the lower panel for statistical comparison.

[5] = Pharmacokinetics in mice (TRF assay of active mimetibody); type: in vivo
Excerpt: Blood was collected at different time points into citrate buffer containing protease inhibitors to minimize the possibility of ex vivo degradation and plasma was separated by centrifugation.
A time resolved fluorescence (TRF) assay was used to measure active mimetibody. Active mimetibody reflects the intact N-terminus of the peptide still attached to the Fc region of the mimetibody.

[6] = SEC-SLS solution molecular weight / self-association; type: physicochemical; conditions: purified mimetibody
[7] = system: CD1 mice; experiment: Mucosal weight gain in small intestine, 10 days daily s.c. dosing; type: in vivo
Excerpt: Afterwards, the mice were euthanized and the small intestines were removed, flushed with saline, and processed as described below.
(§1) Specifically, 4 cm sections were harvested: (1) immediately distal to the pylorus (duodenum), (2) starting 2 cm distal of the ligament of Treitz (jejunum), and (3) immediately proximal to the cecum (ileum). The remaining small intestine from ˜6 cm distal of the ligament of Treitz to 4 cm proximal to the cecum was used to prepare mucosal scrapings. From the proximal and distal ends of the remnant, an equal distance was removed until a 15 cm section remained, the remnant was cut longitudinally, rinsed, and the mucosal layer was removed using the short end of a glass microscope slide. The wet weight of the intact intestinal segments and mucosa was measured.

[8] = system: mice; experiment: Pharmacodynamics, dosing regimens, 11 day study; type: in vivo
Excerpt: as §1
The duration of the study was 11 days and tissue was processed as described in Example 4.

[9] = Incubation with U937 cell lysate, SDS-PAGE; type: in vitro ADME; conditions: 24 hour test period, compared with A2G GLP-2 mimetibody (SEQ ID NO: 5)
Experimental: The purified Pro substitution variants were incubated with U937 cell lysate in the presence of CompleteMini protease inhibitor tablets (Cat. No. 1 836 153, Roche Applied Science, Indianapolis, Ind.) for 0, 12, or 24 hours. Afterwards, GLP-2 mimetibody variants were purified using Protein A beads and resolved on a SDS-PAGE gel.

HGDGSFSDEMNTILDGQAARDFINWLIQTKITD [SEQ ID NO: 55, GLP-2(A2G, N16G, L17Q)]
Random coil [1]: 41.4% | Helix ([1]; listed as GLP-2 (A2G, N16G, L17Q)): 17.0% | Helix ([1]; listed as GLP-2(A2G, N16G, L17Q)): ~17% | SEC-SLS elution / association state of peptides [2]: mainly monomeric peptide | EC50 [3]: 3.5 nM | less activity relative to wild type GLP-2 [3]: 2 ×

SEQ ID NO: 5: A2G GLP-2 mimetibody, IgG4 Hg-CH2-CH3 with S228P and P234A/L235A
upper gastrointestinal transit ([4]; listed as A2G GLP-2 mimetibody): significant acceleration of intestinal transit | upper gastrointestinal transit ([4]; listed as GLP-2 mimetibody): acceleration of upper gastrointestinal transit | Geometric Center (GC) ([4]; single injection 4 days before, scale of 1 to 15, normal mice GC=6): 7.5 | calculated half-life ([5]; CD1 mice, 3 mg/kg intravenously or subcutaneously, TRF active mimetibody): 26.5 h | half-life higher than that of the GLP-2 peptide ([5]; mimetibody in mice vs GLP-2 peptide in humans): more than 200 fold | SEC-SLS association state of mimetibodies [6]: dimer | increase in mucosal wet weight vs control mimetibody ([7]; 0.8 mg/kg (0.26 nmole), p<0.0001): statistically significant | increase in mucosal wet weight vs control mimetibody ([7]; 8 mg/kg (2.6 nmole), p<0.0004): statistically significant | mucosal wet weight (mucosal scrapings) ([7]; female CD1 mice, daily s.c. for 10 days, dose response): dose dependant increase; also recorded: dose-dependent increase | effective in vivo dose lower than A2G GLP-2 peptide ([7]; on a molar basis): 50 fold | mucosal weight difference to control mimetibody ([8]; 4 mg/kg every day or every other day, 11 days): more pronounced | mucosal weight compared to control mimetibody ([8]; 4 mg/kg once per week, 11 days): significantly increased mucosal weight | duodenum and jejunum section wet weight over control mimetibody ([8]; 4 mg/kg, all regimens except the single dose): significant increase in weight

SEQ ID NO: 43: A2G GLP-2 mimetibody Pro substitution variant, V2 GALVAVPS (HGDGSFSDEMNTILDNLAARDFINWLIQTKITDGSGGGSGALVAVPSESKYGPPCPPCP; cysteine pairing not given here; also: part of GLP-2 mimetibody)
degradation / resistance to proteolysis [9]: less degradation

GLP-1 [SEQ ID NO: 79, reference compound]
Helix [1]: 16.8% | Random coil [1]: 41.9% | SEC-SLS elution / association state of peptides [2]: single peak with molecular weight within the expected monomer size

SEQ ID NO: 44: A2G GLP-2 mimetibody Pro substitution variant, V2 GALVAVSP (HGDGSFSDEMNTILDNLAARDFINWLIQTKITDGSGGGSGALVAVSPESKYGPPCPPCP; Mimetibody)
degradation / resistance to proteolysis [9]: less degradation

CC[C@H](C)[C@H](NC(=O)[C@H](Cc1ccccc1)NC(=O)[C@H](CC(=O)O)NC(=O)[C@H](CCCNC(=N)N)NC(=O)[C@H](C)NC(=O)[C@H](C)NC(=O)[C@H](CC(C)C)NC(=O)[C@H](CC(N)=O)NC(=O)[C@H](CC(=O)O)NC(=O)[C@H](CC(C)C)NC(=O)[C@@H](NC(=O)[C@@H](NC(=O)[C@H](CC(N)=O)NC(=O)[C@H](CCSC)NC(=O)[C@H](CCC(=O)O)NC(=O)[C@H](CC(=O)O)NC(=O)[C@H](CO)NC(=O)[C@H](Cc1ccccc1)NC(=O)[C@H](CO)NC(=O)CNC(=O)[C@H](CC(=O)O)NC(=O)[C@H](C)NC(=O)[C@@H](N)Cc1c[nH]cn1)[C@@H](C)O)[C@@H](C)CC)C(=O)N[C@@H](CC(N)=O)C(=O)N[C@@H](Cc1c[nH]c2ccccc12)C(=O)N[C@@H](CC(C)C)C(=O)N[C@H](C(=O)N[C@@H](CCC(N)=O)C(=O)N[C@H](C(=O)N[C@@H](CCCCN)C(=O)N[C@H](C(=O)N[C@H](C(=O)N[C@@H](CC(=O)O)C(=O)O)[C@@H](C)O)[C@@H](C)CC)[C@@H](C)O)[C@@H](C)CC [SEQ ID NO: 1, GLP-2, reference compound]
Helix [1]: 19.6% | Random coil [1]: 37.9% | association state ([2]; 0.4 mg/mL): monomer | SEC-SLS elution / association state of peptides [2]: overlapping dimer and monomer peaks | stimulation of cAMP expression ([3]; clonal HEK 293E line expressing mutated human GLP-2R): stimulated cAMP expression

HGDGSFSDEMNTILDNQAARDFINWLIQTKITD [SEQ ID NO: 54, GLP-2(A2G, L17Q)]
Random coil [1]: 41.8% | Helix ([1]; listed as GLP-2 (A2G, L17Q)): 16.9% | Helix ([1]; listed as GLP-2(A2G, L17Q)): ~17% | SEC-SLS elution / association state of peptides [2]: mainly monomeric peptide | EC50 [3]: 5.2 nM | less activity relative to wild type GLP-2 [3]: 3 ×

B1: SEQ ID NO: 4: A2S GLP-2 mimetibody, IgG4 Hg-CH2-CH3 with S228P and P234A/L235A (protein)
chain: HSDGSFSDEMNTILDNLAARDFINWLIQTKITDGSGGGSGTLVTVSSESKYGPPCPPCPAPEAAGGPSVFLFPPKPDTLMISRTPEVTCVVVDVSQEDPEVQFNWYVDGVEVHNAKTKPREEQFNSTYRVVSVLTVLHQDWLNGKEYKCKVSNKGLPSSIEKTISKAKGQPREPQVYTLPPSQEEMTKNQVSLTCLVKGFYPSDIAVEWESNGQPENNYKTTPPVLDSDGSFFLYSRLTVDKSRWQEGNVFSCSVMHEALHNHYTQKSLSLSLGK
modifications: Mimetibody
SEC-SLS association state of mimetibodies [6]: dimer
